Data published in patent US10167262B2, “Herbicidal substituted 3-arylpyrazoles” (FMC CORPORATION, priority 2014, dated 2019).

Tests used:
Type in all cases: in vivo
[1] = system: lambsquarters (Chenopodium album); experiment: Test C pre-/postemergence greenhouse test, plant response rating 0-100
Procedure, shortened: (§1)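 Scores run from 0, no effect, to 100, complete control, assigned by eye after treated plants and controls spent 13 to 15 days in a greenhouse. Soil-applied treatment went onto freshly sown seed in loam and sand; foliar treatment hit seedlings at the 1- to 4-leaf stage.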

[2] = system: johnsongrass (Sorghum halepense); experiment: as above
Procedure, shortened: as §1

soybean (Glycine max) = experiment: as above
Procedure, shortened: as §1

[3] = system: blackgrass (Alopecurus myosuroides); experiment: as above
Procedure, shortened: as §1

[4] = system: galium (catchweed bedstraw, Galium aparine); experiment: as above
Procedure, shortened: as §1

[5] = system: large (Lg) crabgrass (Digitaria sanguinalis); experiment: as above
Procedure, shortened: as §1

[6] = system: winter wheat (Triticum aestivum); experiment: as above
Procedure, shortened: as §1

[7] = system: giant foxtail (Setaria faberii); experiment: as above
Procedure, shortened: as §1

[8] = system: yellow nutsedge (Cyperus esculentus); experiment: as above
Procedure, shortened: as §1

[9] = system: morningglory (Ipomoea coccinea); experiment: as above
Procedure, shortened: as §1

[10] = system: chickweed (common chickweed, Stellaria media); experiment: Test C postemergence greenhouse test, plant response rating 0-100; conditions: for Plant response rating, Chickweed: scale 0 to 100
Procedure, shortened: (§2)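 Formulated compounds applied postemergence; plants 1- to 4-leaf stage. Evaluated visually vs. untreated controls after roughly two weeks (13–15 d) under greenhouse conditions; 100 denotes complete control.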

wild oat (Avena fatua) = experiment: as above; conditions: for Plant response rating, Oat, Wild: scale 0 to 100
Procedure, shortened: as §2

kochia (Kochia scoparia) = experiment: as above; conditions: for Plant response rating, Kochia: scale 0 to 100
Procedure, shortened: as §2

[11] = Postemergence, 250 g ai/ha, scale 0 to 100
[12] = Postemergence, 500 g ai/ha, scale 0 to 100
[13] = Postemergence, 125 g ai/ha, scale 0 to 100

Compound: Cn1cc(C(=O)c2cccs2)c(-c2cc(Cl)cc(Cl)c2)n1 [Compound 17]
- Plant response rating (0 to 100), Lambsquarters ([1]; Postemergence, 62 g ai/ha): 15
- Plant response rating (0 to 100), Lambsquarters ([1]; Postemergence, 125 g ai/ha): 55
- Plant response rating, Lambsquarters [1, 11]: 80
- Plant response rating, Lambsquarters [1, 12]: 98
- Plant response rating (0 to 100), Johnsongrass ([2]; Postemergence, 62 g ai/ha): 0
- Plant response rating (0 to 100), Johnsongrass ([2]; Postemergence, 125 g ai/ha): 0
- Plant response rating, Johnsongrass [2, 11]: 10
- Plant response rating, Johnsongrass [2, 12]: 15
- Plant response rating (0 to 100), Soybean (soybean (Glycine max); Postemergence, 62 g ai/ha): 0
- Plant response rating (0 to 100), Soybean (soybean (Glycine max); Postemergence, 125 g ai/ha): 0
- Plant response rating, Soybean (soybean (Glycine max); [11]): 10
- Plant response rating, Soybean (soybean (Glycine max); [12]): 15
- Plant response rating (0 to 100), Blackgrass ([3]; Postemergence, 62 g ai/ha): 0
- Plant response rating, Blackgrass [3, 13]: 0
- Plant response rating, Blackgrass [3, 11]: 0
- Plant response rating, Blackgrass [3, 12]: 5
- Plant response rating (0 to 100), Galium ([4]; Postemergence, 62 g ai/ha): 0
- Plant response rating (0 to 100), Galium ([4]; Postemergence, 125 g ai/ha): 0
- Plant response rating, Galium [4, 11]: 0
- Plant response rating, Galium [4, 12]: 20
- Plant response rating (0 to 100), Crabgrass, Large ([5]; Postemergence, 62 g ai/ha): 0
- Plant response rating (0 to 100), Crabgrass, Large ([5]; Postemergence, 125 g ai/ha): 5
- Plant response rating, Crabgrass, Large [5, 11]: 10
- Plant response rating, Crabgrass, Large [5, 12]: 15
- Plant response rating (0 to 100), Wheat ([6]; Postemergence, 62 g ai/ha): 0
- Plant response rating (0 to 100), Wheat ([6]; Postemergence, 125 g ai/ha): 0
- Plant response rating, Wheat [6, 11]: 0
- Plant response rating, Wheat [6, 12]: 0
- Plant response rating (0 to 100), Foxtail, Giant ([7]; Postemergence, 62 g ai/ha): 0
- Plant response rating (0 to 100), Foxtail, Giant ([7]; Postemergence, 125 g ai/ha): 0
- Plant response rating, Foxtail, Giant [7, 11]: 5
- Plant response rating, Foxtail, Giant [7, 12]: 10
- Plant response rating (0 to 100), Nutsedge, Yellow ([8]; Postemergence, 62 g ai/ha): 0
- Plant response rating (0 to 100), Nutsedge, Yellow ([8]; Postemergence, 125 g ai/ha): 5
- Plant response rating, Nutsedge, Yellow [8, 11]: 5
- Plant response rating, Nutsedge, Yellow [8, 12]: 5
- Plant response rating (0 to 100), Morningglory ([9]; Postemergence, 62 g ai/ha): 5
- Plant response rating (0 to 100), Morningglory ([9]; Postemergence, 125 g ai/ha): 5
- Plant response rating, Morningglory [9, 11]: 10
- Plant response rating, Morningglory [9, 12]: 15
- Plant response rating (0 to 100), Chickweed ([10]; 62 g ai/ha): 10
- Plant response rating (0 to 100), Chickweed ([10]; 125 g ai/ha): 65
- Plant response rating, Chickweed ([10]; 250 g ai/ha): 85
- Plant response rating, Chickweed ([10]; 500 g ai/ha): 85
- Plant response rating (0 to 100), Oat, Wild (wild oat (Avena fatua); 62 g ai/ha): 0
- Plant response rating (0 to 100), Oat, Wild (wild oat (Avena fatua); 125 g ai/ha): 0
- Plant response rating, Oat, Wild (wild oat (Avena fatua); 250 g ai/ha): 0
- Plant response rating, Oat, Wild (wild oat (Avena fatua); 500 g ai/ha): 0
- Plant response rating (0 to 100), Kochia (kochia (Kochia scoparia); 62 g ai/ha): 30
- Plant response rating (0 to 100), Kochia (kochia (Kochia scoparia); 125 g ai/ha): 50
- Plant response rating, Kochia (kochia (Kochia scoparia); 250 g ai/ha): 50
- Plant response rating, Kochia (kochia (Kochia scoparia); 500 g ai/ha): 55

Compound: CCOC(OCC)(c1cccs1)c1c[nH]nc1-c1cc(Cl)cc(Cl)c1 [Compound 27]
- Plant response rating (0 to 100), Lambsquarters ([1]; Postemergence, 62 g ai/ha): 75
- Plant response rating (0 to 100), Lambsquarters ([1]; Postemergence, 125 g ai/ha): 95
- Plant response rating, Lambsquarters [1, 11]: 98
- Plant response rating, Lambsquarters [1, 12]: 98
- Plant response rating, Lambsquarters ([1]; Preemergence, 62 g ai/ha): 100
- Plant response rating, Lambsquarters ([1]; Preemergence, 125 g ai/ha): 100
- Plant response rating, Lambsquarters ([1]; Preemergence, 250 g ai/ha): 100
- Plant response rating, Lambsquarters ([1]; Preemergence, 500 g ai/ha): 100
- Plant response rating (0 to 100), Johnsongrass ([2]; Postemergence, 62 g ai/ha): 0
- Plant response rating (0 to 100), Johnsongrass ([2]; Postemergence, 125 g ai/ha): 0
- Plant response rating, Johnsongrass [2, 11]: 0
- Plant response rating, Johnsongrass [2, 12]: 10
- Plant response rating, Johnsongrass ([2]; Preemergence, 62 g ai/ha): 0
- Plant response rating, Johnsongrass ([2]; Preemergence, 125 g ai/ha): 0
- Plant response rating, Johnsongrass ([2]; Preemergence, 250 g ai/ha): 0
- Plant response rating, Johnsongrass ([2]; Preemergence, 500 g ai/ha): 0
- Plant response rating (0 to 100), Soybean (soybean (Glycine max); Postemergence, 62 g ai/ha): 0
- Plant response rating (0 to 100), Soybean (soybean (Glycine max); Postemergence, 125 g ai/ha): 0
- Plant response rating, Soybean (soybean (Glycine max); [11]): 0
- Plant response rating, Soybean (soybean (Glycine max); [12]): 0
- Plant response rating, Soybean (soybean (Glycine max); Preemergence, 62 g ai/ha): 0
- Plant response rating, Soybean (soybean (Glycine max); Preemergence, 125 g ai/ha): 0
- Plant response rating, Soybean (soybean (Glycine max); Preemergence, 250 g ai/ha): 40
- Plant response rating, Soybean (soybean (Glycine max); Preemergence, 500 g ai/ha): 0
- Plant response rating (0 to 100), Blackgrass ([3]; Postemergence, 62 g ai/ha): 0
- Plant response rating, Blackgrass [3, 13]: 5
- Plant response rating, Blackgrass [3, 11]: 0
- Plant response rating, Blackgrass [3, 12]: 0
- Plant response rating, Blackgrass ([3]; Preemergence, 62 g ai/ha): 20
- Plant response rating, Blackgrass ([3]; Preemergence, 125 g ai/ha): 0
- Plant response rating, Blackgrass ([3]; Preemergence, 250 g ai/ha): 50
- Plant response rating, Blackgrass ([3]; Preemergence, 500 g ai/ha): 0
- Plant response rating (0 to 100), Galium ([4]; Postemergence, 62 g ai/ha): 0
- Plant response rating (0 to 100), Galium ([4]; Postemergence, 125 g ai/ha): 0
- Plant response rating, Galium [4, 11]: 0
- Plant response rating, Galium [4, 12]: 0
- Plant response rating, Galium ([4]; Preemergence, 62 g ai/ha): 0
- Plant response rating, Galium ([4]; Preemergence, 125 g ai/ha): 50
- Plant response rating, Galium ([4]; Preemergence, 250 g ai/ha): 80
- Plant response rating, Galium ([4]; Preemergence, 500 g ai/ha): 30
- Plant response rating (0 to 100), Crabgrass, Large ([5]; Postemergence, 62 g ai/ha): 0
- Plant response rating (0 to 100), Crabgrass, Large ([5]; Postemergence, 125 g ai/ha): 0
- Plant response rating, Crabgrass, Large [5, 11]: 10
- Plant response rating, Crabgrass, Large [5, 12]: 10
- Plant response rating, Crabgrass, Large ([5]; Preemergence, 62 g ai/ha): 0
- Plant response rating, Crabgrass, Large ([5]; Preemergence, 125 g ai/ha): 0
- Plant response rating, Crabgrass, Large ([5]; Preemergence, 250 g ai/ha): 0
- Plant response rating, Crabgrass, Large ([5]; Preemergence, 500 g ai/ha): 0
- Plant response rating (0 to 100), Wheat ([6]; Postemergence, 62 g ai/ha): 0
- Plant response rating (0 to 100), Wheat ([6]; Postemergence, 125 g ai/ha): 0
- Plant response rating, Wheat [6, 11]: 0
- Plant response rating, Wheat [6, 12]: 0
- Plant response rating, Wheat ([6]; Preemergence, 62 g ai/ha): 0
- Plant response rating, Wheat ([6]; Preemergence, 125 g ai/ha): 0
- Plant response rating, Wheat ([6]; Preemergence, 250 g ai/ha): 0
- Plant response rating, Wheat ([6]; Preemergence, 500 g ai/ha): 0
- Plant response rating (0 to 100), Foxtail, Giant ([7]; Postemergence, 62 g ai/ha): 0
- Plant response rating (0 to 100), Foxtail, Giant ([7]; Postemergence, 125 g ai/ha): 0
- Plant response rating, Foxtail, Giant [7, 11]: 0
- Plant response rating, Foxtail, Giant [7, 12]: 0
- Plant response rating, Foxtail, Giant ([7]; Preemergence, 62 g ai/ha): 0
- Plant response rating, Foxtail, Giant ([7]; Preemergence, 125 g ai/ha): 0
- Plant response rating, Foxtail, Giant ([7]; Preemergence, 250 g ai/ha): 0
- Plant response rating, Foxtail, Giant ([7]; Preemergence, 500 g ai/ha): 0
- Plant response rating (0 to 100), Nutsedge, Yellow ([8]; Postemergence, 62 g ai/ha): 0
- Plant response rating (0 to 100), Nutsedge, Yellow ([8]; Postemergence, 125 g ai/ha): 0
- Plant response rating, Nutsedge, Yellow [8, 11]: 0
- Plant response rating, Nutsedge, Yellow [8, 12]: 0
- Plant response rating, Nutsedge, Yellow ([8]; Preemergence, 62 g ai/ha): 0
- Plant response rating, Nutsedge, Yellow ([8]; Preemergence, 125 g ai/ha): 0
- Plant response rating, Nutsedge, Yellow ([8]; Preemergence, 250 g ai/ha): 0
- Plant response rating, Nutsedge, Yellow ([8]; Preemergence, 500 g ai/ha): 0
- Plant response rating (0 to 100), Morningglory ([9]; Postemergence, 62 g ai/ha): 0
- Plant response rating (0 to 100), Morningglory ([9]; Postemergence, 125 g ai/ha): 0
- Plant response rating, Morningglory [9, 11]: 0
- Plant response rating, Morningglory [9, 12]: 55
- Plant response rating, Morningglory ([9]; Preemergence, 62 g ai/ha): 0
- Plant response rating, Morningglory ([9]; Preemergence, 125 g ai/ha): 0
- Plant response rating, Morningglory ([9]; Preemergence, 250 g ai/ha): 0
- Plant response rating, Morningglory ([9]; Preemergence, 500 g ai/ha): 0
- Plant response rating (0 to 100), Chickweed ([10]; 62 g ai/ha): 80
- Plant response rating (0 to 100), Chickweed ([10]; 125 g ai/ha): 85
- Plant response rating, Chickweed ([10]; 250 g ai/ha): 90
- Plant response rating, Chickweed ([10]; 500 g ai/ha): 90
- Plant response rating (0 to 100), Oat, Wild (wild oat (Avena fatua); 62 g ai/ha): 0
- Plant response rating (0 to 100), Oat, Wild (wild oat (Avena fatua); 125 g ai/ha): 0
- Plant response rating, Oat, Wild (wild oat (Avena fatua); 250 g ai/ha): 5
- Plant response rating, Oat, Wild (wild oat (Avena fatua); 500 g ai/ha): 5
- Plant response rating (0 to 100), Kochia (kochia (Kochia scoparia); 62 g ai/ha): 80
- Plant response rating (0 to 100), Kochia (kochia (Kochia scoparia); 125 g ai/ha): 80
- Plant response rating, Kochia (kochia (Kochia scoparia); 250 g ai/ha): 90
- Plant response rating, Kochia (kochia (Kochia scoparia); 500 g ai/ha): 90
